The target of the experiment is recombinant eIF4E (Homo sapiens (Human), UniProt P06730). Nature of the experiment: Fluorescence polarization competition assay for eIF4E binding potency. Summed up: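 Protein and fluorescent cap-analog probe (EDA-m7GDP-ATTO-550) were mixed first for 5 min, after which serially diluted compound was added to final 75 nM eIF4E, 20 nM probe, 1% DMSO. Reactions equilibrated 30 min at room temperature before polarization was measured.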
(In general: Fluorescence polarisation rises when a labelled molecule tumbles more slowly, as on binding a larger partner.)

Setting [1] is: fluorescence polarization competition, 75 nM recombinant eIF4E, 20 nM EDA-m7GDP-ATTO-550, IC50 class, read-out: elF4E FP.
Where [2] appears, read: inhibition of eIF4E/EDA-m7GDP-ATTO-550 binding by 50%, Table 4B calculated values, read-out: IC50.
The mark [3] stands for this setting: inhibition of eIF4E/EDA-m7GDP-ATTO-550 binding, calculated IC50 values, Table 4B, read-out: IC50.

Where two headings read alike, the source gives them in different places. Where only a bound is given, the exact number is not on record here.

Chain of recombinant eIF4E (P06730 whole entry): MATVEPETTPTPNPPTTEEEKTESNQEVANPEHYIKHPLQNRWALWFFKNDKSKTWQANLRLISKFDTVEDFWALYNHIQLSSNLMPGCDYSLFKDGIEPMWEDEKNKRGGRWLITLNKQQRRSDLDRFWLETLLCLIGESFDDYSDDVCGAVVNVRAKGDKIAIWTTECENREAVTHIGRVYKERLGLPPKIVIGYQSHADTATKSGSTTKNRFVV

Take `Cc1cc(-c2cc(Cl)ccc2OCCn2c(C)nc3cc(C(F)(F)F)c(-c4nc(C)ncc4F)c(C#N)c3c2=O)c2scc(C(=O)O)c2n1` [compound 964]: the IC50 is less than 50 nM under setting [1] and 3.32 nM under setting [2]. For the compound `Cc1ncc(F)cc1-c1c(CN(C)C)cc2nc(C)n(CCOc3ccc(Cl)cc3-c3ccnc4c(C(=O)O)csc34)c(=O)c2c1C#N` [compound 1267], the IC50 under setting [3] is more than 1000 nM. Regarding `Cc1cc(-c2cc(Cl)ccc2OCCn2c(C)nc3cc(C(F)(F)F)c(-c4cn(C)nc4C)c(C#N)c3c2=O)c2scc(C(=O)O)c2n1` [compound 1031], the IC50 was less than 50 nM under setting [1] and 11.6 nM under setting [2]. `C=Cc1ncc2nc(C)n(CCOc3ccc(Cl)cc3-c3cc(C)nc4c(C(=O)O)csc34)c(=O)c2c1C#N` [compound 809]: the IC50 runs as follows: under setting [1], less than 50 nM; under setting [2], 16 nM. Turning to `Cc1nc2cc(C(F)(F)F)c(CN(C)CC(F)F)c(C#N)c2c(=O)n1CCOc1ccc(Cl)cc1-c1ccnc2c(C(=O)O)csc12` [compound 525], the IC50 is, setting by setting: under setting [1], less than 50 nM; under setting [2], 34.7 nM.

Turning to `Cc1cc(-c2cc(Cl)ccc2OCCn2c(C)nc3c(C)nc(-c4c(F)cccc4F)c(C#N)c3c2=O)c2scc(C(=O)O)c2n1` [compound 1622], the IC50 under setting [3] was 17.3 nM. On the same count and under the same terms, in the case of `Cc1nc2cnc(N(C)C3CCN(CC(F)F)CC3)c(C#N)c2c(=O)n1CC#Cc1ccc(Cl)cc1-c1ccnc2c(C(N)=O)csc12` [compound 1281] it was 117 nM. Same read-out and setting: in the case of `COc1ccc(-c2csc3c(-c4cc(Cl)ccc4OCCn4c(C)nc5cnc(N6CCN(C)CC6)c(C#N)c5c4=O)ccnc23)cc1` [compound 1268] it was 472 nM; in that of `Cc1nc2cnc(N(C)C3CCN(C4(C(F)F)CC4)CC3)c(C#N)c2c(=O)n1CCOc1ccc(Cl)cc1-c1ccnc2c(C(=O)O)csc12` [compound 1430], 22.8 nM. Consider `Cc1cc(-c2cc(Cl)ccc2OCCn2c(C)nc3cc(C(F)(F)F)c(C4CC4)nc3c2=O)c2scc(C(=O)O)c2n1` [compound 795], for which the IC50 is less than 50 nM under setting [1] and 12.1 nM under setting [2]. Regarding `Cc1nc2cnc(N(C)C3CCCN(CC(F)F)C3)c(C#N)c2c(=O)n1CC#Cc1ccc(Cl)cc1-c1ccnc2c(C(=O)O)csc12` (centres unmarked) [compound 1540], the IC50 under setting [3] is 19.5 nM. For `Cc1cc(-c2cc(Cl)ccc2OCCn2c(C)nc3c(-c4ccccc4)nc(N(C)C)c(C#N)c3c2=O)c2scc(C(=O)O)c2n1` [compound 987], the IC50 by setting is: under setting [1], less than 50 nM; under setting [2], 13.6 nM.

On to `Cc1cc(-c2cc(Cl)ccc2C#CCn2c(C)nc3cc(C(F)(F)F)c(-c4ccncn4)c(C#N)c3c2=O)c2scc(C(=O)O)c2n1` [compound 908], for which the IC50 by setting is: under setting [1], less than 50 nM; under setting [2], 3.26 nM. As to `Cc1nc2cnc(N3CCN(C4CC4)CC3(C)C)c(C#N)c2c(=O)n1CCOc1ccc(Cl)cc1-c1ccnc2c(C(=O)O)csc12` [compound 1101], the IC50 runs as follows: under setting [1], less than 50 nM; under setting [2], 7.2 nM. As for `Cc1cc(-c2cc(Cl)ccc2OCCn2c(C)nc3c(C)nc(-c4ccccc4)c(C#N)c3c2=O)c2scc(C(=O)O)c2n1` [compound 737], the IC50 by setting is: under setting [1], less than 50 nM; under setting [2], 12.3 nM.

Take `N#Cc1cccc2nc(C(F)F)n(CCOc3ccc(Cl)cc3-c3ccnc4c(C(=O)O)scc34)c(=O)c12` [compound 2035]: the IC50 under setting [3] was 72.3 nM. Take `O=C(O)c1cccc(-c2cc(Cl)ccc2OCCn2cnc3cccc(F)c3c2=O)c1` [compound 4]: the IC50 under setting [1] is more than 1000 nM and the IC50 under setting [2] was 3520 nM. In the same order, the values of `Cc1cc(-c2cc(Cl)ccc2OCCn2c(C)nc3cc(Cl)c(-c4cc(F)cnc4C)c(C#N)c3c2=O)c2scc(C(=O)O)c2n1` [compound 392] are less than 50 nM and 25.1 nM. In the same order, the values of `O=C(O)c1cccc(-c2cc(Cl)ccc2OCCn2cnc3nccnc3c2=O)c1` [compound 19] are 50 to 1000 nM and 838 nM. Turning to `Cc1nc2cnc(N3CCN([C@H]4C[C@@H]4C(F)(F)F)CC3)c(C#N)c2c(=O)n1CCOc1ccc(Cl)cc1-c1ccnc2c(C(=O)O)csc12` [compound 1642], the IC50 under setting [3] is 24.5 nM.

As for `CCc1cc(-c2cc(F)c(F)cc2OCCn2c(C)nc3cc(C(F)(F)F)c(N4CCN(C)CC4)c(C#N)c3c2=O)c2scc(C(=O)O)c2n1` [compound 1215], the IC50 runs as follows: under setting [1], less than 50 nM; under setting [3], 25.7 nM. Turning to `Cc1nc2cnc(N(C)C3CCN(CC(F)(F)C(F)F)CC3)c(C#N)c2c(=O)n1CC#Cc1ccc(Cl)cc1-c1ccnc2c(C(=O)NS(=O)(=O)c3cccnc3)csc12` [compound 1707], the IC50 under setting [3] is 15.7 nM. Same read-out and setting: in the case of `CCc1cc(-c2cc(Cl)ccc2OCCn2c(C)nc3cc(C(F)(F)F)c(CC4CN(C)C4)c(C#N)c3c2=O)c2scc(C(=O)O)c2n1` [compound 1394] it was 4.74 nM. On to `Cc1cnc(C)c(-c2c(C(F)(F)F)cc3nc(C)n(CCOc4ccc(Cl)cc4-c4cc(C)nc5c(C(=O)O)csc45)c(=O)c3c2C#N)c1` [compound 902], for which the IC50 is, setting by setting: under setting [1], less than 50 nM; under setting [2], 14.2 nM. `Cc1cc(-c2cc(Cl)ccc2OCCn2c(C)nc3c(C)ncc(C#N)c3c2=O)c2scc(C(O)(C(F)(F)F)C(F)(F)F)c2n1` [compound 749]: the IC50 runs as follows: under setting [1], more than 1000 nM; under setting [2], more than 100000 nM. In the case of `CCN(c1ncc2nc(C)n(CC#Cc3ccc(Cl)cc3-c3ccnc4c(C(=O)NS(=O)(=O)c5ccncc5)csc34)c(=O)c2c1C#N)C1CCN(C2CC(F)(F)C2)CC1` [compound 1838], under setting [3], the IC50 was 12.3 nM. With `Cc1cnc2c(C(=O)O)csc2c1-c1cc(Cl)ccc1OCCn1c(C)nc2cc(C(F)(F)F)cc(C#N)c2c1=O` [compound 495], the IC50 under setting [1] was in the range of 50 to 1000 nM and the IC50 under setting [2] was 237 nM. In the same order, the values of `Cn1cc2c(C(=O)O)cc(-c3cc(Cl)ccc3OCCn3cnc4cnc(C#N)cc4c3=O)cc2n1` [compound 102] are more than 1000 nM and 4820 nM. Taken in the same sequence, the figures for `CCc1cc(-c2cc(Cl)ccc2OCCn2c(N)nc3cc(Cl)cc(C#N)c3c2=O)c2scc(C(=O)O)c2n1` [compound 1077] were 50 to 1000 nM and 245 nM. Taken in the same sequence, the figures for `Cc1cc(-c2cc(Cl)ccc2OCCn2c(C)nc3cnc(O)c(C#N)c3c2=O)c2scc(C(=O)O)c2n1` [compound 1004] were less than 50 nM and 22.5 nM. With `N#Cc1cn(CCOc2ccc(Cl)cc2-c2ccnc3c(C(=O)O)csc23)c2c(=O)[nH]c(Nc3ccccc3)nc12` [compound 175], the IC50 under setting [1] was less than 50 nM and the IC50 under setting [2] was 20.4 nM. Consider `Cc1cc(-c2cc(Cl)ccc2OCCn2c(C)nc3ccc(OC(C)C)c(C#N)c3c2=O)c2scc(C(=O)O)c2n1` [compound 371], for which the IC50 under setting [1] is less than 50 nM and the IC50 under setting [2] is 20 nM. Regarding `Cc1nc2cc(C(F)(F)F)cc(C#N)c2c(=O)n1CCOc1ccc(Cl)cc1-c1cncc2c(C(=O)O)csc12` [compound 319], the IC50 under setting [1] is 50 to 1000 nM and the IC50 under setting [2] was 53.5 nM.

On to `Cc1nc2cnc(N(C)C3C[C@H]4C[C@@H]3CN4CC(C)(F)F)c(C#N)c2c(=O)n1CCOc1ccc(Cl)cc1-c1ccnc2c(C(=O)O)csc12` (some centres unmarked) [compound 1688], for which the IC50 under setting [3] was 12.7 nM.

As to `Cc1nc2cnc(N(C)C3CCN(CC(F)F)CC3)c(C#N)c2c(=O)n1CCOc1ccc(Cl)cc1-c1ccnc2c(P(=O)(O)O)csc12` [compound 1617], under setting [3], the IC50 was 15.6 nM.

For `CCN(c1ncc2nc(C)n(CC#Cc3ccc(Cl)cc3-c3ccnc4c(C(=O)NS(=O)(=O)C5CCC5)csc34)c(=O)c2c1C#N)C1CCN(C2COC2)CC1` [compound 1748], the IC50 under setting [3] was 17.5 nM. Take `O=C(O)c1cccc(-c2cc(Cl)ccc2OCCn2cnc3ccncc3c2=O)c1` [compound 12]: the IC50 is more than 1000 nM under setting [1] and 2390 nM under setting [2]. `Cc1ccc(-c2c(C(F)(F)F)cc3nc(C)n(CCOc4ccc(Cl)cc4-c4cc(C)nc5c(C(=O)O)csc45)c(=O)c3c2C#N)cn1` [compound 1910]: the IC50 under setting [3] was 47.4 nM. As for `Cc1nc2cnc(N3CCC4(CC3)CCN4CC(F)F)c(C#N)c2c(=O)n1CC#Cc1ccc(Cl)cc1-c1ccnc2c(C(=O)O)csc12` [compound 1490], under setting [3], the IC50 was 29.1 nM. The same measure, in the same setting: the result for `Cc1nc2cnc(N(C)C3CCN(CC(F)(F)C(F)F)CC3)c(C#N)c2c(=O)n1CC#Cc1ccc(Cl)cc1-c1ccnc2c(C(=O)NS(=O)(=O)c3ccncc3)csc12` [compound 1705] reads 4.8 nM. `Cc1cc(-c2cc(Cl)ccc2OCCn2c(C)nc3cc(CN(C)C(C)(C)C)c(OC(F)F)c(C#N)c3c2=O)c2scc(C(=O)O)c2n1` [compound 618]: the IC50 reads like this: under setting [1], less than 50 nM; under setting [2], 2.98 nM. Taken in the same sequence, the figures for `Cc1nc2cc(C(F)(F)F)c(-c3cccnc3)c(C#N)c2c(=O)n1CCOc1ccc(Cl)cc1-c1cccc(C(=O)O)c1` [compound 388] were less than 50 nM and 6.29 nM. In the case of `Cc1cc(-c2cc(Cl)ccc2OCCn2c(C)nc3cc(C(C)N(C)C)c(OC(F)F)c(C#N)c3c2=O)c2scc(C(=O)O)c2n1` (centres unmarked) [compound 710], the IC50 under setting [1] is less than 50 nM and the IC50 under setting [2] was 31.6 nM. For the compound `Cc1nc2cc(Cl)c(OC(F)(F)F)c(C#N)c2c(=O)n1CCOc1ccc(Cl)cc1-c1ccnc2c(C(=O)O)csc12` [compound 550], the IC50 was 50 to 1000 nM under setting [1] and 87.8 nM under setting [2]. Taken in the same sequence, the figures for `Cc1cc(-c2cc(Cl)ccc2OCCn2c(C)nc3cc(C(F)(F)F)c(-c4cncc(F)c4)c(C#N)c3c2=O)c2scc(C(=O)O)c2n1` [compound 342] were less than 50 nM and 47.4 nM. Taken in the same sequence, the figures for `CNc1nc2c(F)c(F)cc(CCOc3ccc(Cl)cc3-c3cccc(C(=O)O)c3)c2c(=O)[nH]1` [compound 172] were 50 to 1000 nM and 92.3 nM. Turning to `Cc1cc(-c2cc(Cl)ccc2OCCn2c(C)nc3cnc(C(C)(F)F)c(C#N)c3c2=O)c2scc(C(=O)O)c2n1` [compound 913], the IC50 is, setting by setting: under setting [1], less than 50 nM; under setting [2], 16.2 nM.

Values taken from patent publication US11286268B1, “EIF4E-inhibiting compounds and methods” (EFFECTOR THERAPEUTICS, INC., priority 2019, dated 2022).
